Reference: PMC5914052, “ATR kinase inhibitors NVP-BEZ235 and AZD6738 effectively penetrate the brain after systemic administration” (Radiation Oncology (London, England), 2018)
Like-named read-outs stand apart in the source and are kept apart here.

Tests used:
[1] = test system: PI3K/mTOR pathway; conditions: cited from earlier work; for IC50: in cells
[2] = test system: ATR; conditions: in cells, cited from earlier work
[3] = test system: COMI GIC-driven orthotopic GB; conditions: for Effect on survival of irradiated animals: 25 mg/Kg i.p. + 0.5 Gy IR, three consecutive days, versus vehicle+IR; for Median animal survival: 25 mg/Kg i.p. followed 4 h later by 0.5 Gy IR to the head, at d22, d23 and d24, vehicle (DMSO)+IR 99 days
[4] = Brain histopathology (H/E) of tumor-bearing mice treated with ATRi+IR; conditions: H/E staining at d88
[5] = Pharmacokinetics after i.p. delivery: blood and brain concentration by HPLC/MS; format: in vivo, CD-1 mice; conditions: 25 mg/Kg i.p.; for concentration at 1 h / concentration at 2 h / concentration at 6 h / concentration at 8 h: mouse, ip, tumor-free CD-1 mice
Experimental: Tumor-free 8-weeks old CD-1 mice (Envigo, http://www.envigo.com) were inoculated i.p. with 25 mg/Kg body weight of NVP-BEZ235 or AZD6738. 1, 2, 6 and 8 h later, blood was collected by retro-orbital bleeding after which the mice were euthanized by CO2 asphyxiation and the brains explanted. Blood and brain samples were then extracted and NVP-BEZ235 and AZD6738 concentrations determined by High Performance Liquid Chromatography (HPLC)/mass spectrometry (MS) as described.
The biodistribution and pharmacokinetics of these ATRi, in particular the concentration reached in the brain after i.p. delivery, is crucial to determine optimal tumor radio-sensitization conditions in vivo. The presence of genuine NVP-BEZ235 and AZD6738 in the mouse blood and brain after i.p. delivery was investigated using HPLC/MS. Figure 1a and 1c show the isotopic patterns of NVP-BEZ235 and AZD6738 respectively, as determined by MS. A logarithmic relationship was found between abundance of NVP-BEZ235 (Fig. 1b) and AZD6738 (Fig. 1d) (expressed in arbitrary units) and their concentrations. For both NVP-BEZ235 and AZD6738, the Limit of Quantitation (LoQ) was 10 × 10^− 9 M. Tumor-free mice were inoculated i.p. with 25 mg/Kg body weight of NVP-BEZ235 (Fig. 1f) or AZD6738 (Fig. 1i). Mouse ID numbers are indicated at the top of Fig. 1f and I for the sake of reference. Blood samples were then withdrawn retro-orbitally after 1, 2, 6 and 8 h (Fig. 1g and k). Immediately after blood sampling, the animals were euthanized and their brains removed (Fig. 1e and h). All samples were homogenized and extracted concomitantly and its ATRi content determined by HPLC/MS. […] This value returned close to the LoQ (12 × 10^− 9 M) 8 h after the i.p. delivery (Fig. 1e).
Fig. 1 Pharmacokinetics of ATRi studied by HPLC/MS in positive polarity. a Isotopic pattern of NVP-BEZ235. b Relationship between HPLC/MS-determined abundance and concentration of NVP-BEZ235. The limit of quantitation (LoQ) was 10 × 10^− 9 M. c Isotopic pattern of AZD6738. d Relationship between HPLC/MS-determined abundance and concentration of AZD6738. The limit of quantitation (LoQ) was 10 × 10^− 9 M. e-g BBB crossing by NVP-BEZ235. Tumor-free mice were inoculated i.p. with 25 mg/Kg body weight of NVP-BEZ235 (f). At the indicated times [T (h)] blood was withdrawn retroorbitally for plasma isolation and analysis (g). Mice were then euthanized and the brains explanted (e). All blood and brain samples were then resuspended in water/methanol, homogenized, centrifuged and the supernatant determined for its NVP-BEZ235 concentration using HPLC/MS as described under Methods and Materials. Concentration values (× 10^− 9 M) are shown at the top of (e) and (g) and illustrated at half-panel by the area of a colored triangle. S.D. of values determined by this procedure is on average ± 31%. Mouse ID numbers are shown at the top of F for the sake of reference. h-k As in E-G but with AZD6738 TEXT PRINTED IN THE PICTURE: (e) NVP-BEZ235: [NVP-BEZ235] x 10^-9 M: 36 (T (h): 1; Brain); [NVP-BEZ235] x 10^-9 M: 111 (T (h): 2; Brain); [NVP-BEZ235] x 10^-9 M: 44 (T (h): 6; Brain); [NVP-BEZ235] x 10^-9 M: 12 (T (h): 8; Brain) | (g) NVP-BEZ235: [NVP-BEZ235] x 10^-9 M: 146 (T (h): 1; Blood); [NVP-BEZ235] x 10^-9 M: 32 (T (h): 2; Blood); [NVP-BEZ235] x 10^-9 M: 28 (T (h): 6; Blood); [NVP-BEZ235] x 10^-9 M: 12 (T (h): 8; Blood) | (h) AZD6738: [AZD6738] x 10^-9 M: 480 (T (h): 1; Brain); [AZD6738] x 10^-9 M: 380 (T (h): 2; Brain); [AZD6738] x 10^-9 M: 80 (T (h): 6; Brain); [AZD6738] x 10^-9 M: 9 (T (h): 8; Brain) | (k) AZD6738: [AZD6738] x 10^-9 M: 760 (T (h): 1; Blood); [AZD6738] x 10^-9 M: 1480 (T (h): 2; Blood); [AZD6738] x 10^-9 M: 140 (T (h): 6; Blood); [AZD6738] x 10^-9 M: 40 (T (h): 8; Blood)

[6] = mouse, in vivo
[7] = test system: orthotopic xenograft models of GB; set-up: method as in PMID 27542970; conditions: nude rats and NOD/SCID mice; cited from earlier work
[8] = Tolerability of NVP-BEZ235 doses above 25 mg/Kg in animals; format: in vivo; conditions: our animals, data not shown
Source text: Gil del Alcazar and coworkers have described radiosensitization of orthotopic GB by NVP-BEZ235 using the established glioma cell line U87 [15]. The U87-driven tumors yet poorly mimic the infiltrative and neovascularization growth properties of clinical GB [17]. Further, the U87 cell line was recently reported to represent a mix-up with another cell line. In order to investigate the radiosensitization properties of NVP-BEZ235 towards orthotopic GB driven by primary GIC that more faithfully mimic the clinical tumors growth, [17] we preliminarily investigated the pharmacokinetics of NVP-BEZ235 using HPLC/MS. […] The early termination of recent NVP-BEZ235 clinical trials due to elevated toxicity may confirm that safety dosing of NVP-BEZ235 should be thoroughly investigated prior to use. […] (Fig. 1e). […] NVP-BEZ235 can diffuse to brain tissues at pharmacologically active levels after systemic administration, albeit the presence of the efflux ABC-transporters (in particular ABCG2) at the BBB may in part restrict its brain penetration. In a preliminary tumor radiosensitization study, we then developed primary adult COMI tumors in NOD SCID mice, whose immunodeficient phenotype is required for reproducible engraftment in virtually 100% of mice (Fig. 2a). […]

[9] = brain, read-out: Brain concentration
[10] = plasma, read-out: Blood concentration

## C[C@@H]1COCCN1c1cc(C2([S@](C)(=N)=O)CC2)nc(-c2cc[nH]c3nccc2-3)n1 [AZD6738]
[1]
  Inhibition of related kinases in the PI3K/mTOR pathway: does not inhibit significantly
[2]; read-out: IC50 for ATR kinase inhibition in cells
  IC50: […]
[3]
  Effect on survival of irradiated animals: could not observe any survival improvement
  Median animal survival: 101 days
[4]
  Brain histology variation versus DMSO+IR: No significant histology variations
[5]; AZD6738 versus NVP-BEZ235
  Brain concentrations achievable after i.p. administration relative to NVP-BEZ235: […]
[5]; [9]
  concentration at 1 h: 480 nM
  concentration at 2 h: 380 nM
  concentration at 6 h: 80 nM
  concentration at 8 h: 9 nM
[5]; [10]
  concentration at 1 h: 760 nM
  concentration at 2 h: 1480 nM

## Cn1c(=O)n(-c2ccc(C(C)(C)C#N)cc2)c2c3cc(-c4cnc5ccccc5c4)ccc3ncc21 [NVP-BEZ235]
[1]; S473-Akt, read-out: Concentration giving 50% reduction of S473-Akt levels in cells
  IC50: 8 nM
[1]; T308-Akt, read-out: Concentration giving 50% reduction of T308-Akt levels in cells
  IC50: 30 nM
[6]
  Brain histology variation versus DMSO+IR: No significant histology variations
[2]; read-out: IC50 for ATR inhibition in cells
  IC50: 21 nM
[3]
  Effect on survival of irradiated animals: no elongation of median survival
  Median animal survival: 86 days
[7]
  Side effects of doses higher than 25 mg/Kg: severe side effects
  Survival benefit or inhibition of tumour growth: no survival benefit or inhibition of tumour growth
[5]; 1 h versus 2 h
  Decrease of blood concentration from 1 h to 2 h: > 4 fold
[5]; [9]
  concentration at 1 h: 36 nM
  concentration at 2 h: 111 nM
  concentration at 6 h: 44 nM
  concentration at 8 h: 12 nM
[5]; [10]
  concentration at 1 h: 146 nM
  concentration at 2 h: 32 nM
  concentration at 6 h: 28 nM
  concentration at 8 h: 12 nM
[8]
  Toxicity of doses higher than 25 mg/Kg i.p.: significant toxicity
